Laboratory results reported in ChEMBL document CHEMBL1139117, “Novel 4-(6,7-dimethoxy-1,2,3,4-tetrahydroisoquinolin-2-yl)methylbenzofuran derivatives as selective alpha(2C)-adrenergic receptor antagonists” (Bioorg Med Chem Lett, 2007).
The source made the active and inactive calls. The calls are words filed in the database; no cut-off is given here.

Legend:
[1] = target: T1, Alpha-2A adrenergic receptor (Homo sapiens) (UniProt P08913); experiment: Displacement of [3H]MK912 from adrenergic alpha2A receptor in HT29 cells at 0.1 uM; assay type: cell-based; details: HT-29
T1 sequence (whole entry): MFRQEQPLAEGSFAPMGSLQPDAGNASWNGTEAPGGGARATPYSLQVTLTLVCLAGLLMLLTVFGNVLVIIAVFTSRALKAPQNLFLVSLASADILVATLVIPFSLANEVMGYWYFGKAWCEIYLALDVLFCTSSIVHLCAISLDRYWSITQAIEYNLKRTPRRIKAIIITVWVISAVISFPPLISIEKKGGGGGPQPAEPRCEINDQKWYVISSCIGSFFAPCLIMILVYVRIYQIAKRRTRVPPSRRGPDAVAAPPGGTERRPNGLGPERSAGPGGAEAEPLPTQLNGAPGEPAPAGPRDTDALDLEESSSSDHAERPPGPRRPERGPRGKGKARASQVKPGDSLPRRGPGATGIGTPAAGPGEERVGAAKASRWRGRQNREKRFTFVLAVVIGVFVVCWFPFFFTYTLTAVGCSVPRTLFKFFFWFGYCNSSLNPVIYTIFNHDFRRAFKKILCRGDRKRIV

[2] = target: T2, Alpha-2B adrenergic receptor (Homo sapiens) (UniProt P18089); experiment: Displacement of [3H]MK912 from adrenergic alpha-2B receptor expressed in COS7 cells at 0.1 uM; assay type: cell-based; details: COS-7
T2 sequence (whole entry): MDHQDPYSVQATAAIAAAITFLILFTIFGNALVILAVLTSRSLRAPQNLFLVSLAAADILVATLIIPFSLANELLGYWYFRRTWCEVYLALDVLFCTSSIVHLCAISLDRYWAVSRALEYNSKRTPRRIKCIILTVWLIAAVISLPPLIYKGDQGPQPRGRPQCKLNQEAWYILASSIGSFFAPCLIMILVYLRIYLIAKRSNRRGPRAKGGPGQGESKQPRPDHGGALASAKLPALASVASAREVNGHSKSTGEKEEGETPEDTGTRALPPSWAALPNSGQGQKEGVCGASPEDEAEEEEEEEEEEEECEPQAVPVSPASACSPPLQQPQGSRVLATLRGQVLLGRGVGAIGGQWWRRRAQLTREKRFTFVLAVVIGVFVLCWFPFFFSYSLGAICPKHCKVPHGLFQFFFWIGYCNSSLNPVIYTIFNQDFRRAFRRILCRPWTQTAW

[3] = target: T3, Alpha-2C adrenergic receptor (Homo sapiens) (UniProt P18825); experiment: Displacement of [3H]MK912 from adrenergic alpha-2C receptor in HepG2 cells at 0.1 uM; assay type: cell-based
T3 sequence (whole entry): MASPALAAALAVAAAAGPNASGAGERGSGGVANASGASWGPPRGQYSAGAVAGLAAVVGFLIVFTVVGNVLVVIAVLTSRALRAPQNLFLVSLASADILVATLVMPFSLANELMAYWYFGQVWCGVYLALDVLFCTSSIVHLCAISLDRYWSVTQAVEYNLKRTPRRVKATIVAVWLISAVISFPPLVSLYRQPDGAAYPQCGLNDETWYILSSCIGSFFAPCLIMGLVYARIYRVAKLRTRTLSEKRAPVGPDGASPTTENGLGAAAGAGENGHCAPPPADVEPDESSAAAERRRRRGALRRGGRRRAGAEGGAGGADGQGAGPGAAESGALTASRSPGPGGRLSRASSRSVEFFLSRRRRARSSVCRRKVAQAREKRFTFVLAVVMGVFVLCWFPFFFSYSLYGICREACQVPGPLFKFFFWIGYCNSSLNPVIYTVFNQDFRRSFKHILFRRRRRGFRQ

[4] = target: T4, Alpha-2A adrenergic receptor (Homo sapiens, UniProt P08913); experiment: Displacement of [3H]MK-912 from adrenergic alpha2A receptor in HT29 cells; assay type: cell-based, HT-29
T4 sequence (P08913 whole entry): T1 sequence (whole entry)

[5] = target: T5, Alpha-2B adrenergic receptor (Homo sapiens, UniProt P18089); experiment: Displacement of [3H]MK912 from adrenergic alpha-2B receptor expressed in COS7 cells; assay type: cell-based, COS-7
T5 sequence (P18089 whole entry): T2 sequence (whole entry)

[6] = target: T6, Alpha-2C adrenergic receptor (Homo sapiens, UniProt P18825); experiment: Displacement of [3H]MK912 from adrenergic Alpha-2C receptor in HepG2 cells; assay type: cell-based
T6 sequence (P18825 whole entry): T3 sequence (whole entry)

Callithrix jacchus [7] = experiment: Activity against […] induced dyskinetic activity in marmoset at 2.5 mg/kg, po; assay type: functional, organism-based; design: dose 2.5 mg/kg
[8] = AUC in mormoset at 2.5 mg/kg; assay type: ADME, organism-based, Callithrix jacchus; design: dose 2.5 mg/kg; details: marmoset, plasma
Callithrix jacchus [9] = experiment: Activity against […] induced dyskinetic activity in marmoset at 30 mg/kg, po; assay type: functional, organism-based; design: dose 30 mg/kg

| inhibition [3] | Ki [4] | Ki [5] | Ki [6] | SMILES | also measured |
| --- | --- | --- | --- | --- | --- |
| 54% | – | – | – | COc1cc2c(cc1OC)CN(Cc1ccc(OC)c3oc(-c4cccc(C(=O)NCCO)c4)cc13)CC2 | inhibition [1]: 29%; inhibition [2]: 31% |
| – | 2550 nM | 804 nM | 19 nM | COc1cccc(-c2cc3c(CN4CCc5cc(OC)c(OC)cc5C4)ccc(OC)c3o2)c1 | – |
| 35% | – | – | – | COc1cc2c(cc1OC)CN(Cc1ccc(OC)c3oc(-c4ccccc4OC)cc13)CC2 | inhibition [1]: 11%; inhibition [2]: 20% |
| 9% | – | – | – | COc1cc2c(cc1OC)CN(Cc1ccc(OC)c3oc(C(=O)NCCNC(C)=O)cc13)CC2 | – |
| – | 204 nM | 160 nM | 8 nM | COc1cc2c(cc1OC)CN(Cc1ccc(OC)c3oc(-c4ccco4)cc13)CC2 | – |
| – | 1740 nM | 752 nM | 20 nM | COc1cc2c(cc1OC)CN(Cc1ccc(OC)c3oc(-c4ccccc4)cc13)CC2 | Activity (Callithrix jacchus [7]): Active; AUC [8]: 11 ng·h/mL |
| 39% | – | – | – | COc1cc2c(cc1OC)CN(Cc1ccc3cc(-c4ccccc4)oc3c1OC)CC2 | – |
| – | 454 nM | 2070 nM | 9.4 nM | COc1cc2c(cc1OC)CN(Cc1ccc(OC)c3oc(C(=O)NCCN(C)C)cc13)CC2 | Activity (Callithrix jacchus [9]): inactive; AUC [8]: 144 ng·h/mL |
| – | 400 nM | 370 nM | 19 nM | COc1cc2c(cc1OC)CN(Cc1cnc(N)n3nc(-c4ccco4)nc13)CC2 | – |
| 56% | – | – | – | COc1ccc(-c2cc3c(CN4CCc5cc(OC)c(OC)cc5C4)ccc(OC)c3o2)cc1 | – |
| 29% | – | – | – | COc1ccc(CN2CCN(c3ccccc3)CC2)c2cc(-c3ccccc3)oc12 | – |
| – | 304 nM | 949 nM | 18 nM | COc1cc2c(cc1OC)CN(Cc1ccc(OC)c3oc(-c4ccccc4C(F)(F)F)cc13)CC2 | – |
| – | 857 nM | 299 nM | 11 nM | COc1cc2c(cc1OC)CN(Cc1ccc(OC)c3oc(-c4ccccc4F)cc13)CC2 | – |
| 41% | – | – | – | COc1cc2c(cc1OC)CN(Cc1ccc(OC)c3oc(-c4ccc(F)cc4)cc13)CC2 | – |
| – | 216 nM | 584 nM | 9.4 nM | COc1cc2c(cc1OC)CN(Cc1ccc(OC)c3oc(-c4cccc(C(=O)NCCN(C)C)c4)cc13)CC2 | – |
| 35% | – | – | – | COc1cc2c(cc1OC)CN(Cc1ccc(OC)c3oc(-c4ccncc4)cc13)CC2 | – |

| inhibition [3] | Ki [4] | Ki [5] | Ki [6] | SMILES | also measured |
| --- | --- | --- | --- | --- | --- |
| 54% | – | – | – | COc1ccc(CN2CCc3ccccc3C2)c2cc(-c3ccccc3)oc12 | inhibition [1]: 30%; inhibition [2]: 51% |
| 18% | – | – | – | COc1cc2c(cc1OC)CN(Cc1ccc(OC)c3oc(-c4ccc(C(F)(F)F)cc4)cc13)CC2 | – |
| – | 135 nM | 330 nM | 9.6 nM | COc1cc2c(cc1OC)CN(Cc1ccc(OC)c3oc(-c4ccccn4)cc13)CC2 | – |
| 94% | – | – | – | COc1ccc(CN2CCc3ccccc3C2)c2cc(C(=O)NCCN(C)C)oc12 | inhibition [1]: 88%; inhibition [2]: 51% |
| 52% | – | – | – | COc1cc2c(cc1OC)CN(Cc1ccc(OC)c3oc(-c4cccc(F)c4)cc13)CC2 | inhibition [1]: 3%; inhibition [2]: 13% |
| 65% | – | – | – | COc1cc2c(cc1OC)CN(Cc1ccc3cc(C(=O)NCCN(C)C)oc3c1OC)CC2 | inhibition [1]: 20%; inhibition [2]: 15% |
| 62% | – | – | – | COc1cc2c(cc1OC)CN(Cc1ccc(OC)c3oc(-c4cccnc4)cc13)CC2 | – |
| – | 141 nM | 1540 nM | 4.2 nM | COc1cc2c(cc1OC)CN(Cc1ccc(OC)c3oc(C(=O)NCC(C)(C)N)cc13)CC2 | – |
| – | 186 nM | 1360 nM | 3.5 nM | COc1cc2c(cc1OC)CN(Cc1ccc(OC)c3oc(C(=O)N4CCC(N5CCCC5)CC4)cc13)CC2 | – |
| 6% | – | – | – | COc1cc2c(cc1OC)CN(Cc1ccc(OC)c3oc(C(=O)NCCO)cc13)CC2 | – |
| 48% | – | – | – | CCCNC(=O)c1cccc(-c2cc3c(CN4CCc5cc(OC)c(OC)cc5C4)ccc(OC)c3o2)c1 | – |
| 42% | – | – | – | COc1cc2c(cc1OC)CN(Cc1ccc(OC)c3oc(-c4cccc(C#N)c4)cc13)CC2 | – |
| 20% | – | – | – | CCCNC(=O)c1cc2c(CN3CCc4cc(OC)c(OC)cc4C3)ccc(OC)c2o1 | – |
| 41% | – | – | – | COc1cc2c(cc1OC)CN(Cc1cc(OC)c3oc(C(=O)NCCN(C)C)cc3c1)CC2 | – |
| 19% | – | – | – | COc1cc2c(cc1OC)CN(Cc1cc(OC)c3oc(-c4ccccc4)cc3c1)CC2 | – |
| 68% | – | – | – | COc1ccc(CN2CCN(c3ccccc3)CC2)c2cc(C(=O)NCCN(C)C)oc12 | inhibition [1]: 80%; inhibition [2]: 33% |

| SMILES | inhibition [3] | Ki [4] | Ki [5] | Ki [6] | also measured |
| --- | --- | --- | --- | --- | --- |
| COc1cc2c(cc1OC)CN(Cc1ccc(OC)c3oc(C(=O)NC4CN5CCC4CC5)cc13)CC2 (stereo not given) | – | 42 nM | 857 nM | 0.8 nM | – |
